Structures can show the parent of a compound that is named as a salt. Each block holds one compound with its values, some of them ahead of it.
Assays:
[1] = under physiological conditions; cited from earlier work
[2] = Stability of the solid form on storage at different temperatures and humidities, open or closed containers; type: physicochemical; details: for Stability, summary in words: various conditions of temperature, humidity and container
Source text: The stability of ivabradine adipate in comparison to ivabradine hydrochloride form I was investigated at different temperatures and humidities in open or closed containers for different storage times.

Compound: COc1cc2c(cc1OC)CC(=O)N(CCCN(C)C[C@H]1Cc3cc(OC)c(OC)cc31)CC2 [Ivabradine, (S)-3-{3-[(3,4-dimethoxybicyclo[4.2.0]octa-1,3,5-trien-7-ylmethyl)methylamino]propyl}-7,8-dimethoxy-2,3,4,5-tetrahydro-1H-3-benzazepin-2-one]
water solubility [1]: > 10000 µg/mL

Stability (solid form after storage) ([2]; 25° C./60% closed, 57 d): unchanged | Stability (solid form after storage) ([2]; 25° C./60% open, 57 d): unchanged | Stability (solid form after storage) ([2]; 30° C./65% closed, 57 d): unchanged | Stability (solid form after storage) ([2]; 30° C./65% open, 57 d): unchanged | Stability (solid form after storage) ([2]; 40° C./75% closed, 57 d): unchanged | Stability (solid form after storage) ([2]; 40° C./75% open, 57 d): unchanged | Stability, summary in words [2]: stable
Compound: COc1cc2c(cc1OC)CC(=O)N(CCCN(C)C[C@H]1Cc3cc(OC)c(OC)cc31)CC2 [Ivabradine adipate, Ivabradine Adipate]

Stability (solid form after storage) ([2]; 25° C./60% closed, 33 d): unchanged | Stability (solid form after storage) ([2]; 25° C./60% open, 33 d): β + unident. | Stability (solid form after storage) ([2]; 30° C./65% closed, 33 d): unchanged | Stability (solid form after storage) ([2]; 30° C./65% open, 33 d): β | Stability (solid form after storage) ([2]; 40° C./75% closed, 33 d): unchanged | Stability (solid form after storage) ([2]; 40° C./75% open, 33 d): β
Compound: COc1cc2c(cc1OC)CC(=O)N(CCCN(C)C[C@H]1Cc3cc(OC)c(OC)cc31)CC2 [Ivabradine HCl form I, Ivabradine HCl]
Stability, summary in words ([2]; HCl): undergoes phase transition into Ivabradine HCl, form beta

Reference: patent US20140357860A1, “SALT OF IVABRADINE WITH ADIPIC ACID” (ratiopharm GmbH, priority 2010, published 2014)
